Consider 59 compounds from ChEMBL document CHEMBL5052852, “Substituted hydantoinamides as adamts7 antagonists” (2021).

Assay [1] can be described thus: Inhibition of recombinant rat/human ADAMTS7 hybrid using HiLyteFluor-488 DELSSMVLELRGLRT-K(QXL520)-E-NH2 as substrate incubated for 120 mins and measured by FRET assay.
The nature of assay [2]: Inhibition of recombinant rat/human ADAMTS12 hybrid using HiLyteFluor-488 DELSSMVLELRGLRT-K(QXL520)-E-NH2 as substrate incubated for 120 mins and measured by FRET assay.

As a reminder, the IC50 is the concentration that gives 50% inhibition.

Regarding `O=C1NC(=O)C(CNC(=O)c2cnn(-c3ccc(F)cc3F)n2)(c2nccs2)N1` (stereo in doubt), the IC50 came out at 78 nM in assay [1] and 5500 nM in assay [2].

Consider `O=C1NC(=O)[C@](CNC(=O)c2cnn(-c3ccc(Cl)cc3Cl)n2)(C2CC2)N1`, for which the figures for the IC50 in assay [1] and in assay [2] were 130 nM and 7100 nM, respectively. In the same order, the values of `O=C1NC(=O)C(CNC(=O)c2cnn(-c3ccc(F)cc3)n2)(c2ccnn2C(F)F)N1` (single isomer, unassigned; atropisomer) are 18 nM and 1700 nM. In the same order, the values of `CC(C)(C)C1(CNC(=O)c2cnn(-c3ccc(C(F)(F)F)cc3)n2)NC(=O)NC1=O` (racemic) are 620 nM and 50000 nM.

In the case of `O=C1NC(=O)C(CNC(=O)c2cnn(-c3ccc(F)cc3)n2)(c2ncsc2C(F)(F)F)N1` (racemic), the IC50 in assay [1] is 48 nM; in assay [2] it was 6600 nM. Taken in the same sequence, the figures for `O=C1NC(=O)C(CNC(=O)c2cnn(-c3ccc(F)c(Cl)c3)n2)(c2nccs2)N1` (stereo in doubt) were 14 nM and 780 nM. For `O=C1NC(=O)C(CNC(=O)c2cnn(-c3ccc(F)cc3)n2)(c2ccccn2)N1` (stereo in doubt; form 2), the IC50 in assay [1] worked out at 590 nM; in assay [2] it was 50000 nM.

`Cc1ccc(-n2ncc(C(=O)NC[C@@]3(C4CC4)NC(=O)NC3=O)n2)cc1`: the IC50 in assay [1] amounted to 47 nM; in assay [2], 950 nM.

Regarding `CC(C)(C)CC1(CNC(=O)c2cnn(-c3ccccc3)n2)NC(=O)NC1=O` (stereo not given), the IC50 in assay [1] came to 250 nM; in assay [2], 5000 nM.

Consider `O=C1NC(=O)C(CNC(=O)c2cnn(-c3ccc(F)cc3)n2)(C2CCC2)N1` (single isomer, unassigned), for which the IC50 in assay [1] was 24 nM; in assay [2], 4380 nM. In the same order, the values of `CC(C)C1(CNC(=O)c2cnn(-c3ccc(F)cc3)n2)NC(=O)NC1=O` (stereo in doubt) are 8 nM and 2770 nM. Taken in the same sequence, the figures for `CC(C)C1(CNC(=O)c2cnn(-c3ccc(F)cc3)n2)NC(=O)NC1=O` (racemic) were 42 nM and 16000 nM.

As to `CCn1nccc1C1(CNC(=O)c2cnn(-c3ccc(F)cc3)n2)NC(=O)NC1=O` (racemic), the figures for the IC50 in assay [1] and in assay [2] were 14 nM and 2800 nM, respectively. Taken in the same sequence, the figures for `O=C1NC(=O)[C@](CNC(=O)c2cnn(-c3ccc(Cl)c(F)c3)n2)(C2CC2)N1` were 12 nM and 500 nM.

Turning to `O=C1NC(=O)[C@](CNC(=O)c2cnn(-c3ccc(Cl)c(Cl)c3)n2)(C2CC2)N1`, the IC50 worked out at 35 nM in assay [1] and 910 nM in assay [2]. On to `O=C1NC(=O)C(CNC(=O)c2cnn(-c3ccccc3)n2)(c2ccccn2)N1` (racemic), for which the results for the IC50 in assay [1] and in assay [2] were 26 nM and 4800 nM, respectively. Turning to `O=C1NC(=O)C(CNC(=O)c2cnn(-c3ccc(F)cc3)n2)(c2ncsc2C(F)(F)F)N1` (stereo in doubt), the half-inhibitory concentration (IC50) came to 27 nM in assay [1] and 3500 nM in assay [2].

Consider `CCC(C)C1(CNC(=O)c2cnn(-c3ccc(F)cc3)n2)NC(=O)NC1=O` (stereo in doubt; form 2), for which the values for the IC50 in assay [1] and in assay [2] were 37 nM and 1000 nM, respectively. Consider `O=C1NC(=O)C(CNC(=O)c2cnn(-c3ccc(F)cc3F)n2)(C2CCC2)N1` (stereo not given), for which the values for the IC50 in assay [1] and in assay [2] were 63 nM and 8500 nM, respectively. With `O=C1NC(=O)C(CNC(=O)c2cnn(-c3ccc(F)cc3)n2)(c2ccnn2CC(F)(F)F)N1` (racemic), the values for the half-inhibitory concentration (IC50) in assay [1] and in assay [2] were 50 nM and 3200 nM, respectively. Taken in the same sequence, the figures for `O=C1NC(=O)[C@](CNC(=O)c2cnn(-c3cc(F)ccc3F)n2)(C2CC2)N1` were 110 nM and 5500 nM. Take `CC1(C)CC1C1(CNC(=O)c2cnn(-c3ccccc3)n2)NC(=O)NC1=O` (stereo in doubt; form 1): the IC50 worked out at 320 nM in assay [1] and 13000 nM in assay [2]. As for `O=C1NC(=O)C(CNC(=O)c2cnn(-c3ccc(F)cc3)n2)(C2(Cl)CC2)N1` (racemic), the results for the IC50 in assay [1] and in assay [2] were 74 nM and 3700 nM, respectively. As for `O=C1NC(=O)[C@](CNC(=O)c2cnn(-c3ccc(F)cc3Cl)n2)(C2CC2)N1`, the IC50 was found to be 320 nM in assay [1] and 17000 nM in assay [2]. For the compound `O=C1NC(=O)C(CNC(=O)c2cnn(-c3ccc(Cl)c(F)c3)n2)(C2CCC2)N1` (stereo not given), the IC50 in assay [1] is 6 nM; in assay [2], 975 nM. Taken in the same sequence, the figures for `O=C1NC(=O)C(CNC(=O)c2cnn(-c3ccc(Cl)c(F)c3)n2)(c2nccs2)N1` (racemic) were 19 nM and 1100 nM. For `O=C1NC(=O)C(CNC(=O)c2cnn(-c3ccc(F)cc3F)n2)(c2nccs2)N1` (racemic), the IC50 in assay [1] was 87 nM; in assay [2] it was 6600 nM. In the case of `COc1ccc(-n2ncc(C(=O)NC[C@@]3(C4CC4)NC(=O)NC3=O)n2)cc1`, the IC50 was 100 nM in assay [1] and 6000 nM in assay [2].

Regarding `O=C1NC(=O)C(CNC(=O)c2cnn(-c3ccc(F)cc3)n2)(c2ccnn2C(F)F)N1` (racemic), the values for the IC50 in assay [1] and in assay [2] were 29 nM and 2400 nM, respectively.

As for `O=C1NC(=O)C(CNC(=O)c2cnn(-c3ccccc3)n2)(C2CCCOC2)N1` (stereo in doubt; form 1), the values for the IC50 in assay [1] and in assay [2] were 150 nM and 4000 nM, respectively.

On to `O=C1NC(=O)C(CNC(=O)c2cnn(-c3cccc(F)c3)n2)(c2nccs2)N1` (racemic), for which the IC50 in assay [1] stood at 12 nM; in assay [2], 600 nM. Taken in the same sequence, the figures for `O=C1NC(=O)C(CNC(=O)c2cnn(-c3ccccc3)n2)(C2CCOCC2)N1` (racemic) were 128 nM and 9950 nM. Taken in the same sequence, the figures for `CC(C)(C)C1(CNC(=O)c2cnn(-c3ccc(C(F)(F)F)c(F)c3)n2)NC(=O)NC1=O` (racemic) were 210 nM and 50000 nM.

In the case of `O=C1NC(=O)C(CNC(=O)c2cnn(-c3ccccc3)n2)(C2CCCOC2)N1` (racemic), the IC50 in assay [1] was found to be 62 nM; in assay [2] it was 8500 nM. Taken in the same sequence, the figures for `O=C1NC(=O)C(CNC(=O)c2cnn(-c3ccccc3)n2)(C2CCC2)N1` (stereo in doubt) were 78 nM and 11000 nM. In the same order, the values of `CCC(C)C1(CNC(=O)c2cnn(-c3ccc(F)cc3)n2)NC(=O)NC1=O` (racemic) are 10 nM and 2200 nM. Taken in the same sequence, the figures for `CC(C)C1(CNC(=O)c2cnn(-c3cc(F)c(F)c(F)c3)n2)NC(=O)NC1=O` (stereo in doubt) were 20 nM and 3300 nM. Regarding `O=C1NC(=O)[C@](CNC(=O)c2cnn(-c3ncc(F)cc3F)n2)(C2CC2)N1`, the IC50 in assay [1] was determined as 190 nM; in assay [2] it was 6200 nM. In the same order, the values of `O=C1NC(=O)C(CNC(=O)c2cnn(-c3ccccc3)n2)(C2CCCOC2)N1` (stereo in doubt; form 2) are 250 nM and 6500 nM.

On to `Cn1ccnc1C1(CNC(=O)c2cnn(-c3cc(F)c(F)c(F)c3)n2)NC(=O)NC1=O` (stereo in doubt), for which the IC50 came out at 3 nM in assay [1] and 108 nM in assay [2]. Taken in the same sequence, the figures for `O=C1NC(=O)C(CNC(=O)c2cnn(-c3ccc(F)cc3)n2)(CC2CC2)N1` (stereo in doubt) were 130 nM and 6200 nM. Taken in the same sequence, the figures for `CC(C)C1(CNC(=O)c2cnn(-c3ccc(F)c(F)c3)n2)NC(=O)NC1=O` (racemic) were 11 nM and 2500 nM. In the same order, the values of `CC(C)C1(CNC(=O)c2cnn(-c3ccccc3)n2)NC(=O)NC1=O` (racemic) are 265 nM and 14500 nM. As for `CC(C)C1(CNC(=O)c2cnn(-c3cccc(F)c3)n2)NC(=O)NC1=O` (stereo in doubt), the figures for the IC50 in assay [1] and in assay [2] were 13 nM and 2300 nM, respectively.

As to `O=C1NC(=O)C(CNC(=O)c2cnn(-c3ccc(F)cc3)n2)(c2nccs2)N1` (stereo in doubt), the IC50 came to 15 nM in assay [1] and 1400 nM in assay [2]. In the same order, the values of `CC(C)(C)C1(CNC(=O)c2cnn(-c3ccc(F)cc3)n2)NC(=O)NC1=O` (stereo in doubt) are 79 nM and 2200 nM. Taken in the same sequence, the figures for `CC(C)C1(CNC(=O)c2cnn(-c3ccc(F)cc3F)n2)NC(=O)NC1=O` (racemic) were 98 nM and 20000 nM. As to `O=C1NC(=O)C(CNC(=O)c2cnn(-c3ccc(F)cc3)n2)(c2nccs2)N1` (racemic), the figures for the IC50 in assay [1] and in assay [2] were 39 nM and 2400 nM, respectively.

Consider `CCC(C)C1(CNC(=O)c2cnn(-c3ccc(F)cc3)n2)NC(=O)NC1=O` (stereo in doubt; form 1), for which the IC50 in assay [1] amounted to 62 nM; in assay [2], 2900 nM. For the compound `CC(C)C1(CNC(=O)c2cnn(-c3ccc(F)c(Cl)c3)n2)NC(=O)NC1=O` (stereo not given), the IC50 in assay [1] was 190 nM; in assay [2], 12000 nM. For the compound `O=C1NC(=O)[C@](CNC(=O)c2cnn(-c3ccc(F)cc3)n2)(C2CC2)N1`, the results for the IC50 in assay [1] and in assay [2] were 26 nM and 1420 nM, respectively. For `Cc1nc(C2(CNC(=O)c3cnn(-c4ccc(F)cc4)n3)NC(=O)NC2=O)c(C)s1` (racemic), the IC50 in assay [1] came out at 100 nM; in assay [2], 2800 nM.

Regarding `O=C1NC(=O)C(CNC(=O)c2cnn(-c3ccc(F)c(Cl)c3)n2)(C2CCC2)N1` (stereo not given), the IC50 amounted to 18 nM in assay [1] and 1800 nM in assay [2]. Taken in the same sequence, the figures for `O=C1NC(=O)C(CNC(=O)c2cnn(-c3ccc(Cl)c(F)c3)n2)(c2nccs2)N1` (stereo in doubt) were 5 nM and 400 nM.

Regarding `N#Cc1cccc(-n2ncc(C(=O)NC[C@@]3(C4CC4)NC(=O)NC3=O)n2)c1`, the IC50 was determined as 32 nM in assay [1] and 600 nM in assay [2].

Regarding `O=C1NC(=O)[C@](CNC(=O)c2cnn(-c3ccccn3)n2)(C2CC2)N1`, the IC50 in assay [1] turned out to be 98 nM; in assay [2], 7650 nM. Turning to `Cn1ccnc1C1(CNC(=O)c2cnn(-c3ccccc3)n2)NC(=O)NC1=O` (stereo in doubt), the IC50 in assay [2] came to 320 nM. Still for that read-out and setting: in the case of `CC(C)C1(CNC(=O)c2cnn(-c3ccc(F)cc3F)n2)NC(=O)NC1=O` (stereo in doubt) it was 13000 nM; in that of `O=C1NC(=O)C(CNC(=O)c2cnn(-c3ccc(F)cc3)n2)(c2ccccn2)N1` (stereo in doubt; form 1), 1900 nM.
